Where a name gives a salt, the structure may show the parent alone.
What was measured:
mGluR 1 = target: T1, mGluR 1 (Rattus norvegicus, UniProt P23385); experiment: mGluR 1 binding test with tritium-labeled ligand on rat cerebellum P2 membrane fraction; settings: about 20 nM [3H]-6-amino-N-cyclohexyl-N,3-dimethylthiazolo[3,2-a]benzimidazole-2-carboxamide
T1 construct: Each rat (Wistar, male, 9 to 12 weeks of age) was decapitated to excise the cerebellum; from tissue; host or cells: rat (Wistar) cerebellum, P2 membrane fraction
T1 sequence (P23385 19-1199): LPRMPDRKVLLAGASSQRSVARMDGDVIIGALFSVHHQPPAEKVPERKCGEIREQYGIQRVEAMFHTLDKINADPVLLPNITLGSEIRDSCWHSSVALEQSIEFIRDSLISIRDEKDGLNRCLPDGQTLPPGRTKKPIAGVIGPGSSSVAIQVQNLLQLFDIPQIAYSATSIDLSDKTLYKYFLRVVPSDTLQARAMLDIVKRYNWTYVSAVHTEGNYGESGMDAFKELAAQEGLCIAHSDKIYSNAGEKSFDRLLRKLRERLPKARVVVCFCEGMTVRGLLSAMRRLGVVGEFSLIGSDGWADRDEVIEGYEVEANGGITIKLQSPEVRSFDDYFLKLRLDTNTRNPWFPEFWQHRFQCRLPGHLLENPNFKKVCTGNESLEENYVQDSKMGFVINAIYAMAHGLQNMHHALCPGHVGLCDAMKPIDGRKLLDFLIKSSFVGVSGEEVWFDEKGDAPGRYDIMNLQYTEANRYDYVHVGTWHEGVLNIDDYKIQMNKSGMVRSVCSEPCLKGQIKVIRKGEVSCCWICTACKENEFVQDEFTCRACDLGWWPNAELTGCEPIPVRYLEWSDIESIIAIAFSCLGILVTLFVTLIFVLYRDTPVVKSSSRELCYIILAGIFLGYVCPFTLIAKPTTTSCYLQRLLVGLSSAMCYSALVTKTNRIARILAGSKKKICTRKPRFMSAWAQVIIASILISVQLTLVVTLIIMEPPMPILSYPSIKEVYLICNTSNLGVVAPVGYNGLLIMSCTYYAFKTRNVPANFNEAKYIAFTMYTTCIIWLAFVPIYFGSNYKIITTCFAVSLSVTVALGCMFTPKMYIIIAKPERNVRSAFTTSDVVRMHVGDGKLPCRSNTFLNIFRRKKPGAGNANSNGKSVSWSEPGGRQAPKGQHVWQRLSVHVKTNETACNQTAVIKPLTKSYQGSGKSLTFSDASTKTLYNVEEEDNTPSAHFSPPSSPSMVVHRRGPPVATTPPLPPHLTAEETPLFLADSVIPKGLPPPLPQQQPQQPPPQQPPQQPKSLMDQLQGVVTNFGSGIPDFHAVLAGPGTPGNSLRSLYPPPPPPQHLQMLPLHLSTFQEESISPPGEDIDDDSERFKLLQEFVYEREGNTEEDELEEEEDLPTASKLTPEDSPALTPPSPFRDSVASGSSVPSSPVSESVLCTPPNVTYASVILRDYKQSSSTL
Procedure: (Test Methods) 1. The mGluR 1 Binding Activity
Effect of the compounds of the invention upon mGluR 1 was verified in accordance with the method described in the Patent Reference 3.
(Preparation of Rat Cerebellum P2 Membrane Fraction)
Each rat (Wistar, male, 9 to 12 weeks of age) was decapitated to excise the cerebellum. After weight measurement, this was homogenized in 7 to 10 volumes of 0.32 M sucrose solution. After 15 minutes of centrifugation at 900×g, the supernatant was preserved in a container (in ice). The precipitate was again homogenized in 0.32 M sucrose solution of the same volume of the first time and centrifuged at 900×g for 15 minutes. The supernatant obtained this time was combined with the previously obtained supernatant and centrifuged at 15,000×g for 20 minutes. The precipitate was homogenized in 5 mM Tris-HCl, pH 7.4, and centrifuged at 15,000×g for 15 minutes. This step was repeated again. The precipitate was homogenized in 50 mM Tris-HCl, pH 7.4, and centrifuged at 15,000×g for 15 minutes. The precipitate was homogenized in an appropriate amount of 50 mM Tris-HCl, pH 7.4, subdivided into small portions and then preserved at −80° C.
As the assay buffer, 50 mM Tris-HCl, 2.5 mM CaCl2, pH 7.4, was used. [^3H]-(6-Amino-N-cyclohexyl-N,3-dimethylthiazolo[3,2-a]benzimidazole-2-carboxamide) (specific activity; 81 Ci/mmol; Amersham), a test compound and about 0.1 mg of the rat cerebellum P2 membrane fraction were suspended to a total volume of 100 μl in a 96 well microplate and then incubated at room temperature (about 25° C.) for 45 minutes. Completion of the incubation was carried out by a filtration method using Whatman GF/B filter. Quantity of the radioactivity was measured using a liquid scintillation counter. About 20 nM of [^3H]-6-amino-N-cyclohexyl-N,3-dimethylthiazolo[3,2-a]benzimidazole-2-carboxamide was used in the competitive test, and the specific binding was defined as a portion of the total binding, which was replaced by 10 μM of 6-{[(2-methoxyethyl)amino]methyl}-N-neopentylthiazolo[3,2-a]benzimidazole-2-carboxamide (Patent Reference 3, the compound described in Example 75). Evaluation of the test compound was carried out by calculating the ratio of binding inhibition upon the specific binding.
Determination of protein was carried out using BIO-RAD DC protein assay (BIO-RAD). Bovine serum albumin was used as the standard substance.

STZ-loaded mice = experiment: Streptozotocin (STZ)-induced diabetes model, tail pinch test; format: in vivo, ICR mice; settings: at 10 mg/kg
Procedure: • Thomsen C., Mulvihill E. R., Haldeman B., Pickering D. S., Hampson D. R. and Suzdak P. D., A pharmacological characterization of the mGluR 1 alpha subtype of the metabotropic glutamate receptor expressed in a cloned baby hamster kidney cell line., Brain Res., Aug. 13, 1993, 619(1-2), 22-8 2. Inhibitory Effect Upon Neuropathic Pain 1) Streptozotocin (to be Referred to as STZ Hereinafter)—Induced Diabetes Model
The test was carried out by modifying a part of a report (Pharmacol. Biochem. Behav., 39, 541-544, 1991). At a dose of 200 mg/kg, STZ was intraperitoneally administered to each of ICR mice of 4 weeks of age. A preliminary test of a tail pinch test was carried out in the afternoon of the day 2 weeks after the administration, and only animals showing a reaction latency of 3 seconds or less were submitted to the next day's test. Each compound was loaded by 10 mg/kg of oral administration, and the tail pinch test was carried out after 30 minutes of the administration to calculate a difference from the value of latency measured in the preliminary test.
In this connection, normal mice unloaded with STZ show a reaction latency of 6 to 7 seconds in average by this test. STZ-loaded mice having a reaction latency of 3 seconds or less in which distinct reduction in the pain threshold was observed were used in the test of this time. […]

[1] = system: Salmonella typhimurium TA 98 and TA 100; experiment: Reverse mutation test using a bacterium (genetic toxicity); format: cell-based; settings: pre-incubation method, presence and absence of metabolic activation system (S9Mix)
Procedure: Gene mutation inducing ability of the compounds of the invention was verified by a reverse mutation test which uses a bacterium.
The test was carried out in accordance with the genetic toxicity test guideline of drugs (Iyakushin No. 1604, Nov. 1, 1999) by a pre-incubation method in the presence and absence of a metabolic activation system. However, Salmonella typhimurium TA 98 and TA 100 alone were used as the test strains.
(Reverse Mutation Test Using a Bacterium)
A 0.5 ml portion of 0.1 M sodium phosphate buffer (pH 7.4), 0.1 ml of an overnight-cultured test strain suspension and 0.1 ml of a solution of a substance to be tested were put into a test tube and shaken (60 reciprocation/min) at 37° C. for 20 minutes, and then 2 ml of soft agar kept at about 45° C. was added thereto and the mixture was spread on a minimal glucose agar plate medium (plate) and cultured at 37° C. for about 48 hours. In the case of the metabolic activation test, the same procedure was carried out by adding the same volume of S9Mix instead of the 0.1 M sodium phosphate buffer. […]
The number of colonies formed on the plate after 48 hours of culturing was counted. […]

[2] = system: L5/L6 spinal nerves-ligated rat; experiment: L5/L6 spinal nerves-ligated rat, von Frey hair (VFH) test; format: in vivo, SD rats; settings: 30 mg/kg oral administration; VFH test 30 minutes after administration
Procedure: 2) L5/L6 Spinal Nerves-Ligated Rat
The test was carried out by modifying a part of a report (PAIN, 50, 355-363, 1992). Using SD rats, left side hip nerves (L5 and L6) were ligated with a silk thread under pentobarbital anesthesia. The following test was carried out during a period of from on the 7th day to the 14th day after the operation.
Each compound was orally administered, and the von Frey hair (VFH) test was carried out 30 minutes thereafter to calculate the pain threshold value against mechanical nocuous stimulus. The measurement was carried out on the left and right hind legs.
The significant difference test was carried out using the Dunnett method on respective left and right legs between the control group and compound-administered group.

Row | SMILES | IC50 (mGluR 1) [nM] | also measured
1 | CN(CC(C)(C)C)C(=O)c1cn2c(nc3ccc(CNC4COC4)cc32)s1 [Example 6, N-Methyl-N-neopentyl-6-[(oxetan-3-ylamino)methyl]thiazolo[3,2-a]benzimidazole-2-carboxamide 1.5 Fumarate] | 2 | 
2 | CN(CC(C)(C)C)C(=O)c1cn2c(nc3ccc(CNCC4(C)COC4)cc32)s1 [Example 7, N-Methyl-6-({[(3-methyloxetan-3-yl)methyl]amino}methyl)-N-neopentylthiazolo[3,2-a]benzimidazole-2-carboxamide] | 9 | 
3 | CN(CC(C)(C)C)C(=O)c1cn2c(nc3ccc(CNCC4OCCO4)cc32)s1 [Example 12, 6-{[(1,3-Dioxolan-2-ylmethyl)amino]methyl}-N-methyl-N-neopentylthiazolo[3,2-a]benzimidazole-2-carboxamide dihydrochloride] |  | oral activity (STZ-loaded mice): effective; gene mutation inducing ability [1]: negative
4 | CC(C)(C)CNC(=O)c1cn2c(nc3ccc(CN[C@@H]4CCOC4)cc32)s1 [Example 23, (R)-N-Neopentyl-6-{[(tetrahydro-3-furyl)amino]methyl}thiazolo[3,2-a]benzimidazole-2-carboxamide dihydrochloride] | 30 | 
5 | CC(C)(C)CNC(=O)c1cn2c(nc3ccc(CNC[C@H]4CCCO4)cc32)s1 [Example 24, (R)-N-Neopentyl-6-({[(tetrahydro-2-furyl)methyl]amino}methyl)thiazolo[3,2-a]benzimidazole-2-carboxamide dihydrochloride] | 11 | 
6 | CC(C)(C)CNC(=O)c1cn2c(nc3ccc(CNCC4OCCO4)cc32)s1 [Example 26, 6-{[(1,3-Dioxolan-2-ylmethyl)amino]methyl}-N-neopentylthiazolo[3,2-a]benzimidazole-2-carboxamide dihydrochloride] | 8 | 
7 | CC(C)(C)CNC(=O)c1cn2c(nc3ccc(CNCC4CCOCC4)cc32)s1 [Example 28, N-Neopentyl-6-({[(tetrahydro-2H-pyran-4-yl)methyl]amino}methyl)thiazolo[3,2-a]benzimidazole-2-carboxamide dihydrochloride] | 48 | efficacy upon the threshold value reduction in the operated side [2]: showed their efficacy
8 | CN(CC1OCCO1)C(=O)c1cn2c(nc3ccc(CNC4COC4)cc32)s1 [Example 31, N-(1,3-Dioxolan-2-ylmethyl)-N-methyl-6-[(oxetan-3-ylamino)methyl]thiazolo[3,2-a]benzimidazole-2-carboxamide] | 43 | 
9 | CN(CC1OCCO1)C(=O)c1cn2c(nc3ccc(CNCC4OCCO4)cc32)s1 [Example 37, N-(1,3-Dioxolan-2-ylmethyl)-6-{[(1,3-dioxolan-2-ylmethyl)amino]methyl}-N-methylthiazolo[3,2-a]benzimidazole-2-carboxamide dihydrochloride] | 8 | 
10 | CN(CC1OCCO1)C(=O)c1cn2c(nc3ccc(CNCC4CCOCC4)cc32)s1 [Example 39, N-(1,3-Dioxolan-2-ylmethyl)-N-methyl-6-({[(tetrahydro-2H-pyran-4-yl)methyl]amino}methyl)thiazolo[3,2-a]benzimidazole-2-carboxamide dihydrochloride] | 26 | 

More lines, main results first:

Row | IC50 (mGluR 1) [nM] | SMILES | also measured
11 | 3 | CN(CC(C)(C)C)C(=O)c1cn2c(nc3ccc(CNC[C@@H]4CCCO4)cc32)s1 [Example 11, N-Methyl-N-neopentyl-6-({[((S)-tetrahydro-2-furfuryl)methyl]amino}methyl)thiazolo[3,2-a]benzimidazole-2-carboxamide Dihydrochloride] | 
12 | 26 | CN(CC(C)(C)C)C(=O)c1cn2c(nc3ccc(CNC4CCOCC4)cc32)s1 [Example 15, N-Methyl-N-neopentyl-6-{[(tetrahydro-2H-pyran-4-yl)amino]methyl}thiazolo[3,2-a]benzimidazole-2-carboxamide dihydrochloride] | efficacy upon the threshold value reduction in the operated side [2]: showed their efficacy
13 | 6 | CN(CC(C)(C)C)C(=O)c1cn2c(nc3ccc(CNCC4CCOCC4)cc32)s1 [Example 17, N-Methyl-N-neopentyl-6-({[(tetrahydro-2H-pyran-4-yl)methyl]amino}methyl)thiazolo[3,2-a]benzimidazole-2-carboxamide dihydrochloride] | efficacy upon the threshold value reduction in the operated side [2]: showed their efficacy
14 | 37 | CN(CC1OCCO1)C(=O)c1cn2c(nc3ccc(CN[C@@H]4CCOC4)cc32)s1 [Example 34, N-(1,3-Dioxolan-2-ylmethyl)-N-methyl-6-{[(R)-(tetrahydro-3-furyl)amino]methyl}thiazolo[3,2-a]benzimidazole-2-carboxamide dihydrochloride] | 
15 | 12 | CN(CC1OCCO1)C(=O)c1cn2c(nc3ccc(CNC[C@H]4CCCO4)cc32)s1 [Example 35, N-(1,3-Dioxolan-2-ylmethyl)-N-methyl-6-({[((R)-tetrahydro-2-furyl)methyl]amino}methyl)thiazolo[3,2-a]benzimidazole-2-carboxamide dihydrochloride] | 
